Measurements published in patent US10669238B2, “Irreversible bruton's tyrosine kinase inhibitor” (HEFEI INSTITUTES OF PHYSICAL SCIENCE, CHINESE ACADEMY OF …, priority 2016, dated 2020).

Legend:
[1] = molecular target: T1, TEL-LYN-BaF3 cells (stably expressing TEL-LYN activated kinase) (Homo sapiens, UniProt P07948); assay: Cell proliferation (Cell Titer-Glo), BaF3-tel-LYN; format: cell-based; details: BaF3-tel-LYN (mouse BaF3 cells), 72 hours; read-out: Effects on cell proliferation (GI50)
T1 construct: expressed in transfected cells; host or cells: mouse BaF3 cells, retroviral MSCV-Puro; the other entry of the earlier key: ETV6 (P41212, Transcription factor ETV6)
T1 sequence (P07948 247-501 limits assumed): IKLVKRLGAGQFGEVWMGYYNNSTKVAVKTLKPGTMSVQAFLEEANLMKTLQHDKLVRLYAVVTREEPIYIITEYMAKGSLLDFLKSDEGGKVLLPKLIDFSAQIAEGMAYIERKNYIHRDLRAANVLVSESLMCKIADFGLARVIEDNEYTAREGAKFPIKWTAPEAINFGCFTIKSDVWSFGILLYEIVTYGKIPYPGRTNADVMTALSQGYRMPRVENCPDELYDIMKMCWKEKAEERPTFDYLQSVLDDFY
Protocol: (§1) The selectivity of Compound 1 in inhibiting the proliferation of cancer cells was further evaluated by testing the effect of Btk inhibitors on the growth of cancer cells. […]
(§2) In this example different concentrations (0.000508 μM, 0.00152 μM, 0.00457 μM, 0.0137 μM, 0.0411 μM, 0.123 μM, 0.370 μM, 1.11 μM, 3.33 μM, 10 μM) of Compound 1 and Compound 6 were respectively added into the above cells which were then cultured for 72 hours. The number of viable cells was determined via quantitative determination of ATP in living cells by using Cell Titer-Glo® (Promega, the USA) Chemical Luminescent Cell Viability Assay kit.

leukemic cells K562 = assay: Cell proliferation (Cell Titer-Glo), K562; format: cell-based; details: Homo sapiens; K562, 72 hours; read-out: Effects on cell proliferation (GI50)
Protocol: as §1, §2

B-lymphoma cell Ramos = assay: Cell proliferation (Cell Titer-Glo), Ramos; format: cell-based; details: Homo sapiens, Romas, 72 hours, read-out: Effects on cell proliferation (GI50)
Protocol: as §1, §2

[2] = molecular target: T2, TEL-BMX-BaF3 cells (stably expressing TEL-BMX activated kinase) (Homo sapiens, UniProt P51813); assay: Cell proliferation (Cell Titer-Glo), BaF3-tel-BMX; format: cell-based; details: BaF3-tel-BMX (mouse BaF3 cells), 72 hours; read-out: Effects on cell proliferation (GI50)
T2 construct: expressed in transfected cells; host or cells: mouse BaF3 cells, retroviral MSCV-Puro; the other entry of the earlier key: ETV6 (P41212, Transcription factor ETV6)
T2 sequence (P51813 417-675 limits assumed): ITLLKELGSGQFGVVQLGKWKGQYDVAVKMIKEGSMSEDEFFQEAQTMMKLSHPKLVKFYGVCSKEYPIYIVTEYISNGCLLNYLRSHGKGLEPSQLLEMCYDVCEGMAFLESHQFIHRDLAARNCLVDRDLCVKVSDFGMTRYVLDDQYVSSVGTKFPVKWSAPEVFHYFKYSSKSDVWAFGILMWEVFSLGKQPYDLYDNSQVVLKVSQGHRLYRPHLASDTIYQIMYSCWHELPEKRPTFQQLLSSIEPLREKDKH
Protocol: as §1, §2

BTK WT = BTK WT (Homo sapiens, UniProt Q06187); assay: Btk cell-free kinase assay, BTK WT protein; format: biochemical; details: compound 30 mins at room temperature, then 100 μM ATP 20 min at 37° C.
Chain of BTK WT (Q06187 whole entry): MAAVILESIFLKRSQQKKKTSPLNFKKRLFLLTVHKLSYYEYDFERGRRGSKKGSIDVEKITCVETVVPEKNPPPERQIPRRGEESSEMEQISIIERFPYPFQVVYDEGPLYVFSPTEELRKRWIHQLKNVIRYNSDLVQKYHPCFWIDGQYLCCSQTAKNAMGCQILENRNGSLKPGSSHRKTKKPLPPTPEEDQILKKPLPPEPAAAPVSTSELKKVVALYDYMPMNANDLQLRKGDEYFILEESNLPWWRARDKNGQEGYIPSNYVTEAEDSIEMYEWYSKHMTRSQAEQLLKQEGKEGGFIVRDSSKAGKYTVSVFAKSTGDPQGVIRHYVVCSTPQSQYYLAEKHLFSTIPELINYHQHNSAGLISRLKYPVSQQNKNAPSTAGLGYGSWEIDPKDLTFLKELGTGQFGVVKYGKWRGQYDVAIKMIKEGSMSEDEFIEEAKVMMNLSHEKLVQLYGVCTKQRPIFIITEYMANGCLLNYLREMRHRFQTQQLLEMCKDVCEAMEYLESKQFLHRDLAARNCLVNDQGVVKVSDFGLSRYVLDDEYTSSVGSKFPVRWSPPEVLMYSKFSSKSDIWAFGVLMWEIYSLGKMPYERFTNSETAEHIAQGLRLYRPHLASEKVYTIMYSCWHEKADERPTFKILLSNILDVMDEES
Text: The BTK wild-type plasmid and the BTK mutant plasmid (C481S) were respectively transfected into SF9 cells (purchased from invitrogen), and after three generations of virus amplification, the P3-generation virus was used to transfect SF9 cells which were collected after 72-hour culture to obtain protein BTK WT and protein BTK C481S, which were then purified.

[3] = molecular target: T3, TEL-JAK3-BaF3 cells (stably expressing TEL-JAK3 activated kinase) (Homo sapiens, UniProt P52333); assay: Cell proliferation (Cell Titer-Glo), BaF3-tel-JAK3; format: cell-based; details: BaF3-tel-JAK3 (mouse BaF3 cells), 72 hours; read-out: Effects on cell proliferation (GI50)
T3 construct: expressed in transfected cells; host or cells: mouse BaF3 cells, retroviral MSCV-Puro; the other entry of the earlier key: ETV6 (P41212, Transcription factor ETV6)
T3 sequence (P52333 822-1111 limits assumed): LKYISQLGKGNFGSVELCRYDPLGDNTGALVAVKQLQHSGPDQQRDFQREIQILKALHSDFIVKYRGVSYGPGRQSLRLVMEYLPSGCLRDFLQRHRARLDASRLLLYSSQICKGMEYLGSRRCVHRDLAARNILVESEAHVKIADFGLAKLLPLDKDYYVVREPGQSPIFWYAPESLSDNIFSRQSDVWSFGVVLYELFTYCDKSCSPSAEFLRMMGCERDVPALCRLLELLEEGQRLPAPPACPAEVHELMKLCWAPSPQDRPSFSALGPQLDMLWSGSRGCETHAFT
Protocol: as §1, §2

leukemia cell OCI-AML-3 = assay: Cell proliferation (Cell Titer-Glo), OCI-AML-3; format: cell-based; details: Homo sapiens; OCI-AML-3, 72 hours; read-out: Effects on cell proliferation (GI50)
Protocol: as §1, §2

[4] = test system: diffuse histiocytic lymphoma cells SU-DHL-2; assay: Cell proliferation (Cell Titer-Glo), SU-DHL-2; format: cell-based; details: Homo sapiens; SU-DHL-2, 72 hours; read-out: Effects on cell proliferation (GI50)
Protocol: as §1, §2

[5] = test system: MDS-RAEB cell lines SKM-1; assay: Cell proliferation (Cell Titer-Glo), SKM-1; format: cell-based; details: Homo sapiens; SKM-1, 72 hours; read-out: Effects on cell proliferation (GI50)
Protocol: as §1, §2

[6] = test system: acute myeloid leukemia cell lines MOLM13; assay: Cell proliferation (Cell Titer-Glo), MOLM13; format: cell-based; details: Homo sapiens, MOLM-13; MOLM13, 72 hours; read-out: Effects on cell proliferation (GI50)
Protocol: as §1, §2

[7] = test system: colon cancer cells HCT116; assay: Cell proliferation (Cell Titer-Glo), HCT116; format: cell-based; details: Homo sapiens, HCT-116; HCT116, 72 hours; read-out: Effects on cell proliferation (GI50)
Protocol: as §1, §2

mouse pro-B cells BaF3 = assay: Cell proliferation (Cell Titer-Glo), WT-BaF3; format: cell-based; details: WT-BaF3, 72 hours, read-out: Effects on cell proliferation (GI50)
Protocol: as §1, §2

[8] = test system: acute myeloid leukemia cell lines M-07e; assay: Cell proliferation (Cell Titer-Glo), M-07e; format: cell-based; details: 72 hours, read-out: Effects on cell proliferation (GI50)
Protocol: as §1, §2

[9] = test system: bone marrow plasma cell tumor cells AMO-1; assay: Cell proliferation (Cell Titer-Glo), AMO-1; format: cell-based; details: Homo sapiens, AMO1; AMO-1, 72 hours; read-out: Effects on cell proliferation (GI50)
Protocol: as §1, §2

[10] = test system: multiple myeloma cell lines RPM18226; assay: Cell proliferation (Cell Titer-Glo), RPMI8226; format: cell-based; details: Homo sapiens, RPMI-8226; RPMI8226, 72 hours; read-out: Effects on cell proliferation (GI50)
Protocol: as §1, §2

[11] = test system: acute promyelocytic leukemia cell line NB-4 (Lu+); assay: Cell proliferation (Cell Titer-Glo), NB4; format: cell-based; details: NB4, 72 hours; read-out: Effects on cell proliferation (GI50)
Protocol: as §1, §2

| SMILES | GI50 [1] [µM] | GI50 (leukemic cells K562) [µM] | GI50 (B-lymphoma cell Ramos) [µM] | GI50 [2] [µM] | EC50 (BTK WT; read-out: EC50 against BTK WT protein) [µM] | GI50 [3] [µM] | GI50 (leukemia cell OCI-AML-3) [µM] | GI50 [4] [µM] | GI50 [5] [µM] | GI50 [6] [µM] | GI50 [7] [µM] | GI50 (mouse pro-B cells BaF3) [µM] | GI50 [8] [µM] | GI50 [9] [µM] | GI50 [10] [µM] | GI50 [11] [µM] | inhibitory effects against BTK WT (BTK WT) |
| --- | --- | --- | --- | --- | --- | --- | --- | --- | --- | --- | --- | --- | --- | --- | --- | --- | --- |
| C=CC(=O)Nc1cc(Nc2cc(-c3cccc(NC(=O)c4ccc(C(C)(C)C)cc4)c3C)cn(C)c2=O)ccc1C(=O)N1CCOCC1 [Compound 1, N-(3-(5-((3-acrylamide-4-(morpholin-4-carbonyl)phenyl)amino)-1-methyl-6-oxo-1,6-dihydropyridin-3-yl)-2-methylphenyl)-4-(tert-butyl)benzamide] | 6.3 | 4.2 | 3.5 | 0.38 | 0.0047 | 3.2 | 3.8 | 3 | 7.1 | 2.2 | > 10 | 7.9 | 7.3 | 3.4 | 2.9 | 6.6 |  |
| CCC(=O)Nc1cc(Nc2cc(-c3cccc(NC(=O)c4ccc(C(C)(C)C)cc4)c3C)cn(C)c2=O)ccc1C(=O)N1CCOCC1 [Compound 6, N-(3-(5-((3-propanamide-4-(morpholin-4-carbonyl)phenyl)amino)-1-methyl-6-oxo-1,6-dihydropyridin-3-yl)-2-methylphenyl)-4-(tert-butyl)benzamide] | 6.8 | > 10 | 4.6 | 4.1 |  | 4.6 | 9.5 | > 10 | > 10 | 4 | > 10 | 6.3 | > 10 | 8 | 4.7 | > 10 | no inhibitory effects |
